The text below walks through data of patent publication US20130053434A1, “IRREVERSIBLE INHIBITORS USEFUL FOR THE TREATMENT OF KINASE-RELATED PATHOLOGIES” (CENTRE NATIONAL DE LA RECHERCHE SCIENTIFIQUE, priority 2009, published 2013).

The conditions of the series: ester bond, DIAD/PPh3, toluene, 23.0 °C.

Where two headings read alike, the source gives them in different places.

`CCOCOc1cc2c(c(OCOCC)c1)C(=O)O[C@@H](C)C/C=C(/F)C(OC(=O)c1ccccc1)[C@H]1OC(C)(C)O[C@H]1C/C=C/2` (stereo partly shown) returned a ring closure, yield of all isomers (from CCOCOc1cc(/C=C/C[C@@H]2OC(C)(C)O[C@@H]2C(OC(=O)c2ccccc2)/C(F)=C\C[C@@H](C)O)c(C(=O)O)c(OCOCC)c1, 10.2 mM, 1.5 h, 2 steps) of 74%.
As for `CCOCOc1cc2c(c(OCOCC)c1)C(=O)O[C@@H](C)C/C=C(/F)C(OC(=O)c1ccccc1)[C@H]1OC(C)(C)O[C@H]1CCO2` (stereo partly shown), for the setting “from CCOCOc1cc(OCC[C@@H]2OC(C)(C)O[C@@H]2C(OC(=O)c2ccccc2)/C(F)=C\C[C@@H](C)O)c(C(=O)O)c(OCOCC)c1, 10.5 mM, 1.5 h, 2 steps”, the ring closure, yield of all isomers worked out at 70%.
Molecule `CCOCOc1cc2c(c(OCOCC)c1)C(=O)O[C@@H](C)C/C=C\C(OC(=O)c1ccccc1)[C@H]1OC(C)(C)O[C@H]1CC/C=C/2` (stereo partly shown) had a ring closure, yield of all isomers (from CCOCOc1cc(/C=C/CC[C@@H]2OC(C)(C)O[C@@H]2C(/C=C\C[C@@H](C)O)OC(=O)c2ccccc2)c(C(=O)O)c(OCOCC)c1, 10.5 mM, 2.0 h) of 70%.
`CCOCOc1cc2c(c(OCOCC)c1)C(=O)O[C@@H](C)C/C=C\C(OC(=O)c1ccccc1)[C@H]1OC(C)(C)O[C@H]1CCO2` (stereo partly shown) returned a ring closure, yield of all isomers (from CCOCOc1cc(OCC[C@@H]2OC(C)(C)O[C@@H]2C(/C=C\C[C@@H](C)O)OC(=O)c2ccccc2)c(C(=O)O)c(OCOCC)c1, 10.7 mM, 2.0 h) of 80%.
